Measurements: US12065442B2, “Tropomyosin receptor kinase (TRK) degradation compounds and methods of use” (Cullgen (Shanghai), Inc., priority 2018, dated 2024)

These compounds were tested on KM12 cells (assay: Cell viability assay (CellTiter-Glo) in KM12 cells). Details: Homo sapiens, 72 h; Table 2; KM12 cell viability, CellTiter-Glo, 3 days; read-out: IC50.
Assay type: cell-based

Cc1ncsc1-c1ccc(CNC(=O)[C@@H]2C[C@@H](O)CN2C(=O)[C@@H](NC(=O)COCC(=O)N2CCN(c3cccc(-c4cnc5ccc(N6CCC[C@@H]6c6cccc(F)c6)nn45)n3)CC2)C(C)(C)C)cc1 [CPD-008, (2S,4R)-1-((S)-2-(2-(2-(4-(6-(6-((R)-2-(3-Fluorophenyl)pyrrolidin-1-yl)imidazo[1,2-b]pyridazin-3-yl)pyridin-2-yl)piperazin-1-yl)-2-oxoethoxy)acetamido)-3,3-dimethylbutanoyl)-4-hydroxy-N-(4-(4-methylthiazol-5-yl)benzyl)pyrrolidine-2-carboxamide] and Cc1ncsc1-c1ccc(CNC(=O)[C@@H]2C[C@@H](O)CN2C(=O)[C@@H](NC(=O)COCCOCCOCC(=O)N2CCN(c3cccc(-c4cnc5ccc(N6CCC[C@@H]6c6cccc(F)c6)nn45)n3)CC2)C(C)(C)C)cc1 [CPD-011, (2S,4R)-1-((S)-2-(tert-butyl)-14-(4-(6-(6-((R)-2-(3-Fluorophenyl)pyrrolidin-1-yl)imidazo[1,2-b]pyridazin-3-yl)pyridin-2-yl)piperazin-1-yl)-4,14-dioxo-6,9,12-trioxa-3-azatetradecanoyl)-4-hydroxy-N-(4-(4-methylthiazol-5-yl)benzyl)pyrrolidine-2-carboxamide] cannot be ordered by IC50: greater than 1000 nM for the first, greater than 1000 nM for the second.

Compared with O=C1CCC(N2C(=O)c3cccc(NCCCCCC(=O)N4CCN(c5ccc(C(=O)Nc6n[nH]c7ccc(Cc8cc(F)cc(F)c8)cc67)c(NC6CCOCC6)c5)CC4)c3C2=O)C(=O)N1 (centres unmarked) [CPD-056, N-(5-(3,5-difluorobenzyl)-1H-indazol-3-yl)-4-(4-(6-((2-(2,6-dioxopiperidin-3-yl)-1,3-dioxoisoindolin-4-yl)amino)hexanoyl)piperazin-1-yl)-2-((tetrahydro-2H-pyran-4-yl)amino)benzamide], O=C1CCC(N2C(=O)c3cccc(NCCCCCCC(=O)N4CCN(c5ccc(C(=O)Nc6n[nH]c7ccc(Cc8cc(F)cc(F)c8)cc67)c(NC6CCOCC6)c5)CC4)c3C2=O)C(=O)N1 (centres unmarked) [CPD-049, N-(5-(3,5-difluorobenzyl)-1H-indazol-3-yl)-4-(4-(7-((2-(2,6-dioxopiperidin-3-yl)-1,3-dioxoisoindolin-4-yl)amino)heptanoyl)piperazin-1-yl)-2-((tetrahydro-2H-pyran-4-yl)amino)benzamide] is 6.1-fold higher in IC50: 12 nM for the first, 73 nM for the second. The first is the more potent here.

First: O=C1CCC(N2C(=O)c3cccc(NCCOCCOCCOCCOCCC(=O)N4CCN(c5ccc(C(=O)Nc6n[nH]c7ccc(Cc8cc(F)cc(F)c8)cc67)c(NC6CCOCC6)c5)CC4)c3C2=O)C(=O)N1 (centres unmarked) [CPD-031, N-(5-(3,5-Difluorobenzyl)-1H-indazol-3-yl)-4-(4-(1-((2-(2,6-dioxopiperidin-3-yl)-1,3-dioxoisoindolin-4-yl)amino)-3,6,9,12-tetraoxapentadecan-15-oyl)piperazin-1-yl)-2-((tetrahydro-2H-pyran-4-yl)amino)benzamide]
Second: Cc1ncsc1-c1ccc(CNC(=O)[C@@H]2C[C@@H](O)CN2C(=O)[C@@H](NC(=O)CCC(=O)N2CCN(c3ccc(C(=O)Nc4n[nH]c5ccc(Cc6cc(F)cc(F)c6)cc45)c(NC4CCOCC4)c3)CC2)C(C)(C)C)cc1 [CPD-046, (2S,4R)-1-((S)-2-(4-(4-(4-((5-(3,5-Difluorobenzyl)-1H-indazol-3-yl)carbamoyl)-3-((tetrahydro-2H-pyran-4-yl)amino)phenyl)piperazin-1-yl)-4-oxobutanamido)-3,3-dimethylbutanoyl)-4-hydroxy-N-(4-(4-methylthiazol-5-yl)benzyl)pyrrolidine-2-carboxamide]
The IC50 of the first is 10-fold lower: 68.5 nM for the first, 700 nM for the second.

Same assay, conditions: Homo sapiens, 72 h; Table 3; KM12 cell viability, CellTiter-Glo, 3 days; read-out: IC50

First: O=C(CN1CCN(c2ccc(C(=O)Nc3n[nH]c4ccc(Cc5cc(F)cc(F)c5)cc34)c(NC3CCOCC3)c2)CC1)NCCCCCNc1ccc2c(c1)C(=O)N(C1CCC(=O)NC1=O)C2=O (centres unmarked) [TR-164, N-(5-(3,5-Difluorobenzyl)-1H-indazol-3-yl)-4-(4-(2-((5-((2-(2,6-dioxopiperidin-3-yl)-1,3-dioxoisoindolin-5-yl)amino)pentyl)amino)-2-oxoethyl)piperazin-1-yl)-2-((tetrahydro-2H-pyran-4-yl)amino)benzamide]
Second: O=C(CN1CCN(c2cccc(-c3cnc4ccc(N5CCC[C@@H]5c5cccc(F)c5)nn34)n2)CC1)NCCCCCCNc1ccc2c(c1)C(=O)N(C1CCC(=O)NC1=O)C2=O (stereo partly drawn) [TR-128, N-(6-((2-(2,6-dioxopiperidin-3-yl)-1,3-dioxoisoindolin-5-yl)amino)hexyl)-2-(4-(6-(6-((R)-2-(3-fluorophenyl)pyrrolidin-1-yl)imidazo[1,2-b]pyridazin-3-yl)pyridin-2-yl)piperazin-1-yl)acetamide]
The IC50 of the first is 2.4-fold higher: 7.8 nM for the first, 3.3 nM for the second.

Going from O=C1CCC(N2Cc3cc(C#CC(=O)N4CCN(c5cccc(-c6cnc7ccc(N8CCC[C@@H]8c8cccc(F)c8)nn67)n5)CC4)ccc3C2=O)C(=O)N1 (some centres unmarked) [TR-203] to O=C1CCC(N2Cc3ccc(C#CCN4CCN(c5cccc(-c6cnc7ccc(N8CCC[C@@H]8c8cccc(F)c8)nn67)n5)CC4)cc3C2=O)C(=O)N1 (stereo partly drawn) [TR-187, 3-(6-(3-(4-(6-(6-((R)-2-(3-fluorophenyl)pyrrolidin-1-yl)imidazo[1,2-b]pyridazin-3-yl)pyridin-2-yl)piperazin-1-yl)prop-1-yn-1-yl)-1-oxoisoindolin-2-yl)piperidine-2,6-dione], the IC50 rises from 3.7 nM to 18.6 nM (5-fold).

First: O=C1CCC(N2C(=O)c3ccc(NCCC(=O)N4CCN(c5cccc(-c6cnc7ccc(N8CCC[C@@H]8c8cccc(F)c8)nn67)n5)CC4)cc3C2=O)C(=O)N1 (stereo partly drawn) [TR-121, 2-(2,6-Dioxopiperidin-3-yl)-5-((3-(4-(6-(6-((R)-2-(3-fluorophenyl)pyrrolidin-1-yl)imidazo[1,2-b]pyridazin-3-yl)pyridin-2-yl)piperazin-1-yl)-3-oxopropyl)amino)isoindoline-1,3-dione]
Second: O=C1CCC(N2C(=O)c3ccc(NCC4CN(c5cccc(-c6cnc7ccc(N8CCC[C@@H]8c8cccc(F)c8)nn67)n5)C4)cc3C2=O)C(=O)N1 (stereo partly drawn) [TR-179, 2-(2,6-Dioxopiperidin-3-yl)-5-(((1-(6-(6-((R)-2-(3-fluorophenyl)pyrrolidin-1-yl)imidazo[1,2-b]pyridazin-3-yl)pyridin-2-yl)azetidin-3-yl)methyl)amino)isoindoline-1,3-dione]
The IC50 of the first is 11-fold lower: 2.1 nM for the first, 23.4 nM for the second. The first is the more potent here.

First: O=C(CN1CCN(c2cccc(-c3cnc4ccc(N5CCC[C@@H]5c5cccc(F)c5)nn34)n2)CC1)NCCOCCOCCOCCOCCNc1ccc2c(c1)C(=O)N(C1CCC(=O)NC1=O)C2=O (stereo partly drawn) [TR-125, N-(14-((2-(2,6-dioxopiperidin-3-yl)-1,3-dioxoisoindolin-5-yl)amino)-3,6,9,12-tetraoxatetradecyl)-2-(4-(6-(6-((R)-2-(3-fluorophenyl)pyrrolidin-1-yl)imidazo[1,2-b]pyridazin-3-yl)pyridin-2-yl)piperazin-1-yl)acetamide]
Second: O=C(CN1CCN(c2cccc(-c3cnc4ccc(N5CCC[C@@H]5c5cccc(F)c5)nn34)n2)CC1)NCCCCCCCCNc1ccc2c(c1)C(=O)N(C1CCC(=O)NC1=O)C2=O (stereo partly drawn) [TR-133, N-(8-((2-(2,6-dioxopiperidin-3-yl)-1,3-dioxoisoindolin-5-yl)amino)octyl)-2-(4-(6-(6-((R)-2-(3-fluorophenyl)pyrrolidin-1-yl)imidazo[1,2-b]pyridazin-3-yl)pyridin-2-yl)piperazin-1-yl)acetamide]
The IC50 of the first is 8.1-fold lower: 2.8 nM for the first, 22.8 nM for the second.

Same assay, conditions: Homo sapiens, 72 h; Table 4; KM12 cell viability, CellTiter-Glo, 3 days; read-out: IC50

First: O=C1CCC(N2C(=O)Cc3c(NCCN4CCN(c5cccc(-c6cnc7ccc(N8CCC[C@@H]8c8cccc(F)c8)nn67)n5)CC4)cccc32)C(=O)N1 (stereo partly drawn) [TR-236, 3-(4-((2-(4-(6-(6-((R)-2-(3-Fluorophenyl)pyrrolidin-1-yl)imidazo[1,2-b]pyridazin-3-yl)pyridin-2-yl)piperazin-1-yl)ethyl)amino)-2-oxoindolin-1-yl)piperidine-2,6-dione]
Second: Cn1c(=O)n(C2CCC(=O)NC2=O)c2cccc(CCCN3CCN(c4cccc(-c5cnc6ccc(N7CCC[C@@H]7c7cccc(F)c7)nn56)n4)CC3)c21 (stereo partly drawn) [TR-240, 3-(4-(3-(4-(6-(6-((R)-2-(3-fluorophenyl)pyrrolidin-1-yl)imidazo[1,2-b]pyridazin-3-yl)pyridin-2-yl)piperazin-1-yl)propyl)-3-methyl-2-oxo-2,3-dihydro-1H-benzo[d]imidazol-1-yl)piperidine-2,6-dione]
The IC50 of the first is 6.2-fold higher: 99 nM for the first, 16 nM for the second.

First: O=C1CCC(N2Cc3cc(C#CC4CCN(c5cccc(-c6cnc7ccc(N8CCC[C@@H]8c8cccc(F)c8)nn67)n5)CC4)ccc3C2=O)C(=O)N1 (stereo partly drawn) [TR-208, 3-(5-((1-(6-(6-((R)-2-(3-fluorophenyl)pyrrolidin-1-yl)imidazo [1,2-b]pyridazin-3-yl)pyridin-2-yl)piperidin-4-yl)ethynyl)-1-oxoisoindolin-2-yl)piperidine-2,6-dione]
Second: O=C1CCC(N2Cc3cc(NCC4CCN(c5cccc(-c6cnc7ccc(N8CCC[C@@H]8c8cccc(F)c8)nn67)n5)CC4)ccc3C2=O)C(=O)N1 (stereo partly drawn) [TR-218, 3-(5-(((1-(6-(6-((R)-2-(3-Fluorophenyl)pyrrolidin-1-yl)imidazo[1,2-b]pyridazin-3-yl)pyridin-2-yl)piperidin-4-yl)methyl)amino)-1-oxoisoindolin-2-yl)piperidine-2,6-dione]
The IC50 of the first is 2.2-fold lower: 7 nM for the first, 15.3 nM for the second.

Compared with O=C1CCC(N2C(=O)c3ccc(N4CCC(CN5CCN(c6cccc(-c7cnc8ccc(N9CCC[C@@H]9c9cccc(F)c9)nn78)n6)CC5)CC4)cc3C2=O)C(=O)N1 (stereo partly drawn) [TR-226, 2-(2,6-Dioxopiperidin-3-yl)-5-(4-((4-(6-(6-((R)-2-(3-fluorophenyl)pyrrolidin-1-yl)imidazo[1,2-b]pyridazin-3-yl)pyridin-2-yl)piperazin-1-yl)methyl)piperidin-1-yl)isoindoline-1,3-dione], O=C1CCC(n2c(=O)n(CCN3CCN(c4cccc(-c5cnc6ccc(N7CCC[C@@H]7c7cccc(F)c7)cn56)n4)CC3)c3ccccc32)C(=O)N1 (stereo partly drawn) [TR-242, 3-(3-(2-(4-(6-(6-((R)-2-(3-fluorophenyl)pyrrolidin-1-yl)imidazo[1,2-a]pyridin-3-yl)pyridin-2-yl)piperazin-1-yl)ethyl)-2-oxo-2,3-dihydro-1H-benzo[d]imidazol-1-yl)piperidine-2,6-dione] is higher in IC50: 13.8 nM for the first, greater than 500 nM for the second.
